# Reference: article PMC3670040, “Structure of Lipid Kinase p110β/p85β Elucidates an Unusual SH2-Domain-Mediated Inhibitory Mechanism” (Molecular Cell, 2011)
# Square brackets hold non-standard residues; d marks the D form. Ends that are not written are not given here. pY = N[C@@H](Cc1ccc(OP(=O)(O)O)cc1)C(=O)O
# Test system: human p110β
# Assay: Transcreener ADP formation, human p110β with icSH2 of human p85α, p85β, p55γ
# Type: biochemical
# Conditions: icSH2 from p85α, p85β or p55γ; 10 μM pY2; Figure 4A
# Method: Figure 4 cSH2 Is Important for p110β Inhibition In Vitro and in Cells (A) Kinase activity of human p110β and icSH2 wild-type constructs from three human regulatory subunits (p85α, p85β, and p55γ) in the absence and presence of 10 μM PDGFR pY2 (y axis as in Figure 1B). EC50s for wild-type and icSH2 tyrosine mutants, in the absence and presence of 10 μM PDGF pY2, are shown. (B) Western blots of HEK cells transiently expressing wild-type and mutant human p110β/p85α. The membrane was probed with antibodies against PKB, pPKB (pSer473), myc (p110β), FLAG (p85α), and actin. Bar graphs show mean ± SEM (n = 3) of PKB phosphorylation level normalized to wild-type p110β/p85α (WT). The position of the three mutations is mapped on the p110β/p85β structure. […]
# The lipid kinase activity was determined using the Transcreener ADP2 FP Assay (BellBrook Labs, Madison, WI) according to manufacturer‟s specifications. This non-radioactive assay measures activity by quantitating the amount of ADP formed. The ADP formed by PI3K competes with fluorescent ADP tracer for binding to an anti-ADP antibody, thereby decreasing fluorescence polarization. […]
substance,measurement,value
"ESDGG[pY]MDMSKDESID[pY]VPMLDMKGDIKYADIE [pY2, bis-phosphopeptide (PDGFR 735–767, with pY740 and pY751)]",effect of pY2 on activity of human p110β bound to icSH2,significantly stimulated the activity
